Reference: patent EP1379283B1, “IDENTIFICATION OF TARGET-SPECIFIC FOLDING SITES IN PEPTIDES AND PROTEINS” (Palatin Technologies, Inc., priority 2000, dated 2002)
Square brackets hold non-standard residues; d marks the D form. Ends that are not written are not given here. Nle = CCCC[C@H](N)C(=O)O; Sar = CNCC(=O)O

How the values were obtained:
angiotensin-II receptor = biological target: T1, angiotensin-II receptor (Homo sapiens, UniProt P30556); assay: angiotensin-II receptor binding, radioiodinated angiotensin II ligand, membranes of human neuroblastoma cells (KAN-TS); settings: for % Inhibition at 1 µM: KAN-TS cell membranes, 125I-Tyr4, Sar1, Ile8-Angiotensin II
T1 construct: cell membranes obtained from human neuroblastoma cells (KAN-TS); endogenous in cells; host or cells: KAN-TS human neuroblastoma cells (membranes)
T1 sequence (P30556 1-359): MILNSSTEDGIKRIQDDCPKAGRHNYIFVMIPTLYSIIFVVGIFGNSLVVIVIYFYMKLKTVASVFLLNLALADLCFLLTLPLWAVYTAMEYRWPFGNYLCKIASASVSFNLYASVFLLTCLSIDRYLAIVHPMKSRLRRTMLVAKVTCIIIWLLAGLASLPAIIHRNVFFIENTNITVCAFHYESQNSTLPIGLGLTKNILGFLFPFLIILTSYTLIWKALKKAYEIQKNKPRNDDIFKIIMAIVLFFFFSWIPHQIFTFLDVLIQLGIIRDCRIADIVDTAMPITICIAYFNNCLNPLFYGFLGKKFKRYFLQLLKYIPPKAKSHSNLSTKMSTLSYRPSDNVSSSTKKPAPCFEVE
Protocol: The screening of compounds for binding to the angiotensin-II receptor was performed using cell membranes obtained from human neuroblastoma cells (KAN-TS). The assay was performed in triplicates, generally as described in Example 4 for oxytocin, except for measurement of receptor bound radioactivity. For angiotensin, a radioiodinated tracer ligand was used (instead of a tritiated ligand), which radioiodinated tracer facilitated direct measurement of bound radioactivity using a gamma counter. A final 1-3 nM concentration of ^125I-Tyr^4, Sar^1, Ile^8-Angiotensin II ligand (obtained from Perkin Elemer - NEN Life Sciences) was used as radiotracer and angiotensin-II (1 µM final assay concentration) was used to measure non-specific binding. After filtration of the incubation medium, followed by washings, drying the filters and punching the filters into test tubes, the filters were counted for radioactivity in a gamma counter. An activity profile for the test compounds was generated by ability to inhibit specific binding of the radiotracer to its receptor.

hMC4-R = biological target: T2, hMC4-R (Homo sapiens, UniProt P32245); assay: competitive inhibition binding assay with 125I-NDP-alpha-MSH, hMC4-R membranes; settings: 0.4 nM 125I-NDP-alpha-MSH, mean of triplicate
T2 construct: expressed in transfected cells; host or cells: 293 cells
T2 sequence (P32245 whole entry): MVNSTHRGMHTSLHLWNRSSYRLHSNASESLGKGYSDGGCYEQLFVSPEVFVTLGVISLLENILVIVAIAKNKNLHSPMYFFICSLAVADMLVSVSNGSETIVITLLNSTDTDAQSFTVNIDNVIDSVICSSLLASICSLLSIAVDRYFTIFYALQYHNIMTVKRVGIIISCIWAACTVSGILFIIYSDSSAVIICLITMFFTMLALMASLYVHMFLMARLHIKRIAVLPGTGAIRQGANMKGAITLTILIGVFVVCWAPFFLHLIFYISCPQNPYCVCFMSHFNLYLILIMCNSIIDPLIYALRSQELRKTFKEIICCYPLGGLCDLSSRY
Protocol: (§1) Ac-Nle-Ala-His-D-Phe-Arg-Trp-NH2 is a known receptor-binding sequence for melanotropin receptors. The K, values for binding to MCR-1 and -4 were measured to be 0.1 µM and 2 µM respectively. A series of metallopeptides based on this sequence were synthesized by inserting a Cys residue after the 2 position and through the n+1 position and complexing the resulting Cys-containing peptide with an Re-oxo metal ion core as described Example 1. The resulting metallopeptides were screened for inhibiting the binding of 125-I-NDP-alpha-MSH radioligand using B-16 mouse melanoma cells for MCR-1 and cloned human MCR-[…] and -4 receptor transfected 293 cells.
(§2) The competitive inhibition binding assay was conducted using membranes prepared from hMC3-R, hMC4-R, hMC5-R, and B-16 mouse melanoma cells (containing MC1-R) using 0.4 nM ^125I-NDP-alpha-MSH (New England Nuclear, Boston, MA, USA) in 50 mM HEPES buffer containing 1 mM MgCl2, 2 mM CaCl2, and 5 mM KCI, at pH 7.2. The assay tube also contained a chosen concentration of the test peptide of this invention, complexed to a rhenium metal ion as indicated, for determining its efficacy in inhibiting the binding of ^125I-NDP-alpha-MSH to its receptor. Non-specific binding was measured by complete inhibition of binding of ^125I-NDP-alpha-MSH in the assay with the presence of 1 µM alpha-MSH. Incubation was for 90 minutes at room temperature, after which the assay mixture was filtered and the membranes washed three times with ice cold buffer. The filter was dried and counted in a gamma counter for remaining radioactivity bound to the membranes. 100% specific binding was defined as the difference in radioactivity (cpm) bound to cell membranes in the absence and presence of 1 µM alpha-MSH. The cpm obtained in presence of test compounds were normalized with respect to 100% specific binding to determine the percent inhibition of ^125I-NDP-alpha MSH binding. Each assay was conducted in triplicate and the actual mean valves are described in Table 2.

hMC3-R = biological target: T3, hMC3-R (Homo sapiens, UniProt P41968); assay: competitive inhibition binding assay with 125I-NDP-alpha-MSH, hMC3-R membranes; settings: 0.4 nM 125I-NDP-alpha-MSH, mean of triplicate
T3 construct: expressed in transfected cells; host or cells: 293 cells
T3 sequence (P41968 whole entry): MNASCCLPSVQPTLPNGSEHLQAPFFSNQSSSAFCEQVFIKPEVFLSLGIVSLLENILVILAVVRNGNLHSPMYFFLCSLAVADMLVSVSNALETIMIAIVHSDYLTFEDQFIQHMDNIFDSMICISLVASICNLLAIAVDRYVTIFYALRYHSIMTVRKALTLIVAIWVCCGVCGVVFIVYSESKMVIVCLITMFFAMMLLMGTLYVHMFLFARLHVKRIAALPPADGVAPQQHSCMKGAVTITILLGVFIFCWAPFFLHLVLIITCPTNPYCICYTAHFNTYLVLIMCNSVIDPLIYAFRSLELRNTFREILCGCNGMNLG
Protocol: as §1, §2

MC1-R = biological target: T4, MC1-R (Mus musculus, UniProt Q01727); assay: competitive inhibition binding assay with 125I-NDP-alpha-MSH, B-16 mouse melanoma cell membranes; settings: for % Inhibition at 1 µM MC-1: 0.4 nM 125I-NDP-alpha-MSH, B-16 mouse melanoma cell membranes, mean of triplicate; for receptor specificity MCR-1 versus MCR-4: conclusion from Table 2
T4 construct: B-16 mouse melanoma cells (containing MC1-R); endogenous in cells; host or cells: B-16 mouse melanoma cells (membranes)
T4 sequence (Q01727 whole entry): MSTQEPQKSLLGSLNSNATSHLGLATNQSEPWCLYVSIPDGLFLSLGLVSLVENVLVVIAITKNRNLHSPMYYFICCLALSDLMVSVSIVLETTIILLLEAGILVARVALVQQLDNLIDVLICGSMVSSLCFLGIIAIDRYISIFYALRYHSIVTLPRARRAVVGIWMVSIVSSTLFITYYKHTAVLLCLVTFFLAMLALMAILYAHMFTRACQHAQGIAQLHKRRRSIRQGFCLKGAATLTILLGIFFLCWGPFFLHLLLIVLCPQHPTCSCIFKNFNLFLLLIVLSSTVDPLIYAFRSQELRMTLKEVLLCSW
Protocol: as §1, §2

hMC5-R = biological target: T5, hMC5-R (Homo sapiens, UniProt P33032); assay: competitive inhibition binding assay with 125I-NDP-alpha-MSH, hMC5-R membranes; settings: 0.4 nM 125I-NDP-alpha-MSH, mean of triplicate
T5 construct: expressed in transfected cells; host or cells: 293 cells are named only for 'MCR-2, -3 and -4'; for MC5-R the host is inferred
T5 sequence (P33032 whole entry): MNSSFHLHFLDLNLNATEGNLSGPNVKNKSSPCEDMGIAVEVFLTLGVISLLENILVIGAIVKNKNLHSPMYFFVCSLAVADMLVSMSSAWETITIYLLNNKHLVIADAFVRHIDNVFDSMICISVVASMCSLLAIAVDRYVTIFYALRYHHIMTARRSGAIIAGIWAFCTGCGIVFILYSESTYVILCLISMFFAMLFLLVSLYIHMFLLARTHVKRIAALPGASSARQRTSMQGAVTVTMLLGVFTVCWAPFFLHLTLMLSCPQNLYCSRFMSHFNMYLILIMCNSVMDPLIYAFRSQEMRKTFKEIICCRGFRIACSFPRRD
Protocol: as §2

uPA receptor = biological target: T6, uPA receptor (Homo sapiens, UniProt Q03405); assay: uPA receptor-binding assay using U937 cells and ATF as competitive ligand; settings: 1 µM metallopeptide; U937 cells; ATF as competitive receptor binding ligand
T6 construct: endogenous in cells; host or cells: U937 cells
T6 sequence (Q03405 23-335): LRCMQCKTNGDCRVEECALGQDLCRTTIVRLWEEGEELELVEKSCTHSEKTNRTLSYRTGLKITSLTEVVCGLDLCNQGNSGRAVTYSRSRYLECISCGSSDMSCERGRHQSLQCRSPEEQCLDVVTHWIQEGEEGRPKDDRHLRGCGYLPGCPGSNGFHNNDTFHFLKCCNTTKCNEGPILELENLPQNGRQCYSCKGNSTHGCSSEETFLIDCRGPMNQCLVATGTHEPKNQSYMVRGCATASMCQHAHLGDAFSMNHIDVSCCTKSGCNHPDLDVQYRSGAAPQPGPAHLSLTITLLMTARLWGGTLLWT

Row | Substance | % Inhibition at 1 µM (angiotensin-II receptor) | % Inhibition at 1 µM MC-4 (hMC4-R) | % Inhibition at 1 µM MC-3 (hMC3-R) | % Inhibition at 1 µM MC-1 (MC1-R) | % Inhibition at 1 µM MC-5 (hMC5-R) | other results
1 | Sar-Arg-Val-Tyr-Ile-His-Cys-Pro-Thr ([Sar]RVYIHCPT; not fully specified (bridges); printed as Sar-Arg-Val-Tyr-Ile-His-Cys-Pro-Thr; also: oxorhenium(V) metal complex) [SEQ ID NO:161] | 60% |  |  |  |  | 
2 | Sar-Arg-Cys-Val-Tyr-Ile-His-Pro-Thr ([Sar]RCVYIHPT; not fully specified (bridges); printed as Sar-Arg-Cys-Val-Tyr-Ile-His-Pro-Thr; also: oxorhenium(V) metal complex) [SEQ ID NO:165] | 1% |  |  |  |  | 
3 | Ac-[Nle]AH[dF]RCW-NH2 |  | 17% | 0% | 96% | 0% | receptor specificity MCR-1 versus MCR-4 (MC1-R): specific for the MCR-1 receptor but not the MCR-4 receptor
4 | Sar-Arg-Val-Cys-Tyr-Ile-His-Pro-Thr ([Sar]RVCYIHPT; not fully specified (bridges); printed as Sar-Arg-Val-Cys-Tyr-Ile-His-Pro-Thr; also: oxorhenium(V) metal complex) [SEQ ID NO:164] | 1% |  |  |  |  | 
5 | Ac-[Nle]ACH[dF]RW-NH2 |  | 71% | 47% | 96% | 64% | 
6 | Ac-[Nle]AH[dF]CRW-NH2 |  | 66% | 15% | 93% | 57% | 
7 | Ac-[Nle]AH[dF]RWC-NH2 |  | 98% | 70% | 91% | 93% | receptor specificity MCR-1 versus MCR-4 (MC1-R): binding both the MCR-1 and MCR-4 receptors
8 | Ac-Val-Ser-Asn-Cys-Lys-Tyr-Phe-Ser-Asn-Ile-His-Trp-NH2 (Ac-VSNCKYFSNIHW-NH2; not fully specified (bridges); printed as Ac-Val-Ser-Asn-Cys-Lys-Tyr-Phe-Ser-Asn-Ile-His-Trp-NH2; also: oxorhenium(V) N3S1 metal chelate (X-X-Cys)) [SEQ ID NO:5] |  |  |  |  |  | % Inhibition at 1 µM (uPA receptor): 0.0%
9 | Sar-Arg-Val-Tyr-Cys-Ile-His-Pro-Thr ([Sar]RVYCIHPT; not fully specified (bridges); printed as Sar-Arg-Val-Tyr-Cys-Ile-His-Pro-Thr; also: oxorhenium(V) metal complex) [SEQ ID NO:163] | 12% |  |  |  |  | 
10 | Sar-Arg-Val-Tyr-Ile-His-Cys-Gly-Thr ([Sar]RVYIHCGT; not fully specified (bridges); printed as Sar-Arg-Val-Tyr-Ile-His-Cys-Gly-Thr; also: oxorhenium(V) metal complex) [SEQ ID NO:166] | 11% |  |  |  |  | percent inhibition compared with SEQ ID NO:161 (angiotensin-II receptor; Gly substituted for Pro): significantly less
11 | Sar-Arg-Val-Tyr-Ile-His-Gly-Cys-Thr ([Sar]RVYIHGCT; not fully specified (bridges); printed as Sar-Arg-Val-Tyr-Ile-His-Gly-Cys-Thr; also: oxorhenium(V) metal complex) [SEQ ID NO:160] | 5% |  |  |  |  | 
12 | Ac-Val-Ser-Asn-Lys-Tyr-Phe-Ser-Asn-Ile-Cys-His-Trp-NH2 (Ac-VSNKYFSNICHW-NH2; not fully specified (bridges); printed as Ac-Val-Ser-Asn-Lys-Tyr-Phe-Ser-Asn-Ile-Cys-His-Trp-NH2; also: oxorhenium(V) N3S1 metal chelate (X-X-Cys)) [SEQ ID NO:11] |  |  |  |  |  | % Inhibition at 1 µM (uPA receptor): 0.0%
13 | Ac-[Nle]AHC[dF]RW-NH2 |  | 75% | 9% | 84% | 58% | 
14 | Ac-Val-Ser-Asn-Lys-Cys-Tyr-Phe-Ser-Asn-Ile-His-Trp-NH2 (Ac-VSNKCYFSNIHW-NH2; not fully specified (bridges); printed as Ac-Val-Ser-Asn-Lys-Cys-Tyr-Phe-Ser-Asn-Ile-His-Trp-NH2; also: oxorhenium(V) N3S1 metal chelate (X-X-Cys)) [SEQ ID NO:6] |  |  |  |  |  | % Inhibition at 1 µM (uPA receptor): 13.0%
15 | Sar-Arg-Val-Tyr-Ile-Cys-His-Pro-Thr ([Sar]RVYICHPT; not fully specified (bridges); printed as Sar-Arg-Val-Tyr-Ile-Cys-His-Pro-Thr; also: oxorhenium(V) metal complex) [SEQ ID NO:162] | 20% |  |  |  |  | 
